Our source for the IC50 values is US11053239B2, “Compounds as BLC-2-selective apoptosis-inducing agents” (Fochon Pharmaceuticals, Ltd., priority 2017, dated 2021).

For one experiment, the system named is RS4; 11 cells. Put plainly: Cell proliferation assay (MTS), RS4; 11 cells. It is filed as cell-based. Conditions: Homo sapiens, RS4-11, 72 h, RS4; 11 (ATCC CRL-1873) cell proliferation, 30000 cells/well, 72 h, MTS; mechanism-based readout of Bcl-2 inhibition; read-out: RS4; 11 IC50. An outline of the steps: (§1)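 RS4;11 (30000 cells/well, 72 h) and DOHH2 (5000 cells/well, 120 h) cells in RPMI-1640/10% FBS, treated at 37 °C with compound at 1.5–10000 nM final. Viability by MTS (2 h, SDS stop), absorbance 490 nm minus 650 nm reference; IC50 fitted.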

The subject of the next experiment is DOHH2 cells. Put plainly: Cell proliferation assay (MTS), DOHH2 cells. It is filed as cell-based. Conditions: Homo sapiens, DOHH-2, 120 h, DOHH2 (DSMZ ACC 47) cell proliferation, 5000 cells/well, 120 h, MTS; mechanism-based readout of Bcl-2 inhibition; read-out: DOHH2 IC50. An outline of the steps:
as §1

Turning to `COC(=O)N=S1(=O)CCN(CC[C@H](C)Nc2ccc(S(=O)(=O)NC(=O)c3ccc(N4CCN(CC5=C(c6ccc(Cl)cc6)CC(C)(C)CC5)CC4)cc3Oc3cnc4[nH]ccc4c3)cc2S(=O)(=O)C(F)(F)F)CC1` [Example 92, methyl (S)-(4-(3-((4-(N-(2-((1H-pyrrolo[2,3-b]pyridin-5-yl)oxy)-4-(4-((4′-chloro-5,5-dimethyl-3,4,5,6-tetrahydro-[1,1′-biphenyl]-2-yl)methyl)piperazin-1-yl)benzoyl)sulfamoyl)-2-((trifluoromethyl)sulfonyl)phenyl)amino)butyl)-1-oxido-1λ^6-thiomorpholin-1-ylidene) carbamate], the IC50 worked out at 109 nM in the experiment on RS4; 11 cells and 53 nM in the experiment with DOHH2 cells.

Turning to `CC1(C)CCC(CN2CCN(c3ccc(C(=O)NS(=O)(=O)c4ccc(NCC5CC(N=S(C)(C)=O)C5)c([N+](=O)[O-])c4)c(Oc4cnc5[nH]ccc5c4)c3)CC2)=C(c2ccc(Cl)cc2)C1` (centres unmarked) [Example 59, 2-((1H-pyrrolo[2,3-b]pyridin-5-yl)oxy)-4-(4-((4′-chloro-5,5-dimethyl-3,4,5,6-tetrahydro-[1,1′-biphenyl]-2-yl)methyl)piperazin-1-yl)-N-((4-(((3-((dimethyl(oxo)-λ^6-sulfanylidene)amino)cyclobutyl)methyl)amino)-3-nitrophenyl)sulfonyl)benzamide], the IC50 in the experiment with RS4; 11 cells worked out at 35 nM; in the experiment with DOHH2 cells, 82 nM.

Consider `CC(C)C(=O)N=S1(=O)CCN(CC[C@H](C)Nc2ccc(S(=O)(=O)NC(=O)c3ccc(N4CCN(CC5=C(c6ccc(Cl)cc6)CC(C)(C)CC5)CC4)cc3Oc3cnc4[nH]ccc4c3)cc2[N+](=O)[O-])CC1` [Example 82, (S)-2-((1H-pyrrolo[2,3-b]pyridin-5-yl)oxy)-4-(4-((4′-chloro-5,5-dimethyl-3,4,5,6-tetrahydro-[1,1′-biphenyl]-2-yl)methyl)piperazin-1-yl)-N-((4-((4-(1-(isobutyrylimino)-1-oxido-1λ^6-thiomorpholino)butan-2-yl)amino)-3-nitrophenyl)sulfonyl)benzamide], for which the IC50 came out at 10 nM in the experiment with RS4; 11 cells and 18 nM with DOHH2 cells.

As to `CC(C)C(=O)N=S1(=O)CCN(CCNc2ccc(S(=O)(=O)NC(=O)c3ccc(N4CCN(CC5=C(c6ccc(Cl)cc6)CC(C)(C)CC5)CC4)cc3Oc3cnc4[nH]ccc4c3)cc2[N+](=O)[O-])CC1` [Example 68, 2-((1H-pyrrolo[2,3-b]pyridin-5-yl)oxy)-4-(4-((4′-chloro-5,5-dimethyl-3,4,5,6-tetrahydro-[1,1′-biphenyl]-2-yl)methyl)piperazin-1-yl)-N-((4-((2-(1-(isobutyrylimino)-1-oxido-1λ^6-thiomorpholino)ethyl)amino)-3-nitrophenyl)sulfonyl) benzamide], the IC50 in the experiment on RS4; 11 cells amounted to 24 nM; with DOHH2 cells it was 217 nM.

For `COC(=O)N=S1(=O)CCC(CNc2ccc(S(=O)(=O)NC(=O)c3ccc(N4CCN(CC5=C(c6ccc(Cl)cc6)CC(C)(C)CC5)CC4)cc3Oc3cnc4[nH]ccc4c3)cc2[N+](=O)[O-])CC1` (centres unmarked) [Example 61, methyl(4-(((4-(N-(2-((1H-pyrrolo[2,3-b]pyridin-5-yl)oxy)-4-(4-((4′-chloro-5,5-dimethyl-3,4,5,6-tetrahydro-[1,1′-biphenyl]-2-yl)methyl)piperazin-1-yl)benzoyl)sulfamoyl)-2-nitrophenyl)amino)methyl)-1-oxidotetrahydro-2H-1λ^6-thiopyran-1-ylidene) carbamate], the values for the IC50 with RS4; 11 cells and with DOHH2 cells were 56 nM and 161 nM, respectively.

Regarding `C[C@@H](CN1CCS(=O)(=NC#N)CC1)Nc1ccc(S(=O)(=O)NC(=O)c2ccc(N3CCN(CC4=C(c5ccc(Cl)cc5)CC(C)(C)CC4)CC3)cc2Oc2cnc3[nH]ccc3c2)cc1[N+](=O)[O-]` [Example 6, (S)-2-((1H-pyrrolo[2,3-b]pyridin-5-yl)oxy)-4-(4-((4′-chloro-5,5-dimethyl-3,4,5,6-tetrahydro-[1,1′-biphenyl]-2-yl)methyl)piperazin-1-yl)-N-((4-((1-(1-(cyanoimino)-1-oxido-1λ^6-thiomorpholino)propan-2-yl)amino)-3-nitrophenyl)sulfonyl)benzamide], the IC50 in the experiment on RS4; 11 cells came out at 36 nM; in the experiment on DOHH2 cells, 150 nM.

On to `COC(=O)N=S1(=O)CCN(CC[C@H](C)Nc2ccc(S(=O)(=O)NC(=O)c3ccc(N4CCN(CC5=C(c6ccc(Cl)cc6)CC(C)(C)CC5)CC4)cc3Oc3cnc4[nH]ccc4c3)cc2[N+](=O)[O-])CC1` [Example 84, methyl (S)-(4-(3-((4-(N-(2-((1H-pyrrolo[2,3-b]pyridin-5-yl)oxy)-4-(4-((4′-chloro-5,5-dimethyl-3,4,5,6-tetrahydro-[1,1′-biphenyl]-2-yl)methyl)piperazin-1-yl)benzoyl)sulfamoyl)-2-nitrophenyl)amino)butyl)-1-oxido-1λ^6-thiomorpholin-1-ylidene)carbamate], for which the IC50 in the experiment with RS4; 11 cells came out at 11 nM; with DOHH2 cells, 15 nM.

Turning to `C[C@@H](CCN1CCS(=O)(=NC2CC2)CC1)Nc1ccc(S(=O)(=O)NC(=O)c2ccc(N3CCN(CC4=C(c5ccc(Cl)cc5)CC(C)(C)CC4)CC3)cc2Oc2cnc3[nH]ccc3c2)cc1S(=O)(=O)C(F)(F)F` [Example 88, (S)-2-((1H-pyrrolo[2,3-b]pyridin-5-yl)oxy)-4-(4-((4′-chloro-5,5-dimethyl-3,4,5,6-tetrahydro-[1,1′-biphenyl]-2-yl)methyl)piperazin-1-yl)-N-((4-((4-(1-(cyclopropylimino)-1-oxido-1λ^6-thiomorpholino)butan-2-yl)amino)-3-((trifluoromethyl)sulfonyl)phenyl)sulfonyl)benzamide], the figures for the IC50 in the experiment on RS4; 11 cells and in the experiment on DOHH2 cells were 187 nM and 464 nM, respectively.

Consider `CC(C)C(=O)N=S1(=O)CCN(CC[C@H](C)Nc2ccc(S(=O)(=O)NC(=O)c3ccc(N4CCN(CC5=C(c6ccc(Cl)cc6)CC(C)(C)CC5)CC4)cc3Oc3cnc4[nH]ccc4c3)cc2S(=O)(=O)C(F)(F)F)CC1` [Example 90, (S)-2-((1H-pyrrolo[2,3-b]pyridin-5-yl)oxy)-4-(4-((4′-chloro-5,5-dimethyl-3,4,5,6-tetrahydro-[1,1′-biphenyl]-2-yl)methyl)piperazin-1-yl)-N-((4-((4-(1-(isobutyrylimino)-1-oxido-1λ^6-thiomorpholino)butan-2-yl)amino)-3-((trifluoromethyl)sulfonyl)phenyl)sulfonyl) benzamide], for which the IC50 with RS4; 11 cells was 116 nM; in the experiment on DOHH2 cells it was 225 nM.

Consider `CC1(C)CCC(CN2CCN(c3ccc(C(=O)NS(=O)(=O)c4ccc(NCC5CCOCC5)c([N+](=O)[O-])c4)c(Oc4cnc5[nH]ccc5c4)c3)CC2)=C(c2ccc(Cl)cc2)C1` [Reference compound 1, 2-((1H-pyrrolo[2,3-b]pyridin-5-yl)oxy)-4-(4-((4′-chloro-5,5-dimethyl-3,4,5,6-tetrahydro-[1,1′-biphenyl]-2-yl)methyl)piperazin-1-yl)-N-((3-nitro-4-(((tetrahydro-2H-pyran-4-yl)methyl)amino)phenyl)sulfonyl)benzamide, reference compound], for which the figures for the IC50 with RS4; 11 cells and in the experiment on DOHH2 cells were 18 nM and 57 nM, respectively.
